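Five compound concentrations were applied to cells in 96-well plates for 48 hours; endpoints were derived by simple linear interpolation of the resulting dose-response curve. TGI: concentration producing complete growth inhibition.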
Experiments:
Assay in all cases: NCI anticancer screen, dose series, 48 h
786-0 renal = test system: 786-0 renal
A498 renal = test system: A498 renal
A549 NSCLC = test system: A549 NSCLC
ACHN renal = test system: ACHN renal
BT-549 breast = test system: BT-549 breast
CAKI-1 renal = test system: CAKI-1 renal
COLO 205 colon = test system: COLO 205 colon
DU-145 prostate = test system: DU-145 prostate
EKVX NSCLC = test system: EKVX NSCLC
HCC-2998 colon = test system: HCC-2998 colon
HCT-116 colon = test system: HCT-116 colon
HCT-15 colon = test system: HCT-15 colon
HOP-62 NSCLC = test system: HOP-62 NSCLC
HOP-92 NSCLC = test system: HOP-92 NSCLC
HS 578T breast = test system: HS 578T breast
HT29 colon = test system: HT29 colon
IGROV1 ovarian = test system: IGROV1 ovarian
K-562 leukemia = test system: K-562 leukemia
KM12 colon = test system: KM12 colon
M14 melanoma = test system: M14 melanoma
MALME-3M melanoma = test system: MALME-3M melanoma
MCF7 breast = test system: MCF7 breast
MDA-MB-231 breast = test system: MDA-MB-231 breast
MDA-MB-435 = test system: MDA-MB-435
MDA-N = test system: MDA-N
MOLT-4 leukemia = test system: MOLT-4 leukemia
NCI-H23 lung = test system: NCI-H23 lung
NCI-H460 lung = test system: NCI-H460 lung
NCI-H522 lung = test system: NCI-H522 lung
NCI/ADR-RES ovarian = test system: NCI/ADR-RES ovarian
OVCAR-3 ovarian = test system: OVCAR-3 ovarian
OVCAR-4 ovarian = test system: OVCAR-4 ovarian
OVCAR-5 ovarian = test system: OVCAR-5 ovarian
OVCAR-8 ovarian = test system: OVCAR-8 ovarian
PC-3 prostate = test system: PC-3 prostate
RPMI-8226 leukemia = test system: RPMI-8226 leukemia
RXF 393 renal = test system: RXF 393 renal
SF-268 CNS = test system: SF-268 CNS
SF-295 CNS = test system: SF-295 CNS
SK-MEL-2 melanoma = test system: SK-MEL-2 melanoma
SK-MEL-28 melanoma = test system: SK-MEL-28 melanoma
SK-MEL-5 melanoma = test system: SK-MEL-5 melanoma
SK-OV-3 ovarian = test system: SK-OV-3 ovarian
SNB-19 CNS = test system: SNB-19 CNS
SNB-75 CNS = test system: SNB-75 CNS
SR leukemia = test system: SR leukemia
SW-620 colon = test system: SW-620 colon
U251 CNS = test system: U251 CNS
UACC-257 melanoma = test system: UACC-257 melanoma
UACC-62 melanoma = test system: UACC-62 melanoma
UO-31 renal = test system: UO-31 renal
HL-60(TB) leukemia = test system: HL-60(TB) leukemia
LOX IMVI melanoma = test system: LOX IMVI melanoma
SF-539 CNS = test system: SF-539 CNS
SN12C renal = test system: SN12C renal
T-47D breast = test system: T-47D breast
TK-10 renal = test system: TK-10 renal

Measured: TGI

C/C=C\C(CC(=O)O)CN1CCC2=C(C1)C(S(=O)(=O)C(F)(F)F)c1ccccc12 (stereo not drawn)
> 100 µM: 786-0 renal | A498 renal | A549 NSCLC | ACHN renal | BT-549 breast | CAKI-1 renal | COLO 205 colon | DU-145 prostate | EKVX NSCLC | HCC-2998 colon | HCT-116 colon | HCT-15 colon | HOP-62 NSCLC | HOP-92 NSCLC | HS 578T breast | HT29 colon | IGROV1 ovarian | K-562 leukemia | KM12 colon | M14 melanoma | MALME-3M melanoma | MCF7 breast | MDA-MB-231 breast | MDA-MB-435 | MDA-N | MOLT-4 leukemia | NCI-H23 lung | NCI-H460 lung | NCI-H522 lung | NCI/ADR-RES ovarian | OVCAR-3 ovarian | OVCAR-4 ovarian | OVCAR-5 ovarian | OVCAR-8 ovarian | PC-3 prostate | RPMI-8226 leukemia | RXF 393 renal | SF-268 CNS | SF-295 CNS | SK-MEL-2 melanoma | SK-MEL-28 melanoma | SK-MEL-5 melanoma | SK-OV-3 ovarian | SNB-19 CNS | SNB-75 CNS | SR leukemia | SW-620 colon | U251 CNS | UACC-257 melanoma | UACC-62 melanoma | UO-31 renal

OC1(c2ccccc2)CCCCCCCCC(O)(c2ccccc2)CCCCCCCC1 (stereo not drawn)
> 100 µM: 786-0 renal | A498 renal | A549 NSCLC | ACHN renal | CAKI-1 renal | COLO 205 colon | DU-145 prostate | EKVX NSCLC | HCC-2998 colon | HCT-116 colon | HCT-15 colon | HL-60(TB) leukemia | HOP-62 NSCLC | HOP-92 NSCLC | HT29 colon | IGROV1 ovarian | K-562 leukemia | KM12 colon | LOX IMVI melanoma | M14 melanoma | MALME-3M melanoma | MCF7 breast | MDA-MB-435 | MDA-N | NCI-H23 lung | NCI-H460 lung | NCI-H522 lung | NCI/ADR-RES ovarian | OVCAR-3 ovarian | OVCAR-4 ovarian | OVCAR-5 ovarian | OVCAR-8 ovarian | PC-3 prostate | RXF 393 renal | SF-268 CNS | SF-295 CNS | SF-539 CNS | SK-MEL-2 melanoma | SK-MEL-28 melanoma | SK-MEL-5 melanoma | SK-OV-3 ovarian | SN12C renal | SNB-19 CNS | SNB-75 CNS | SR leukemia | SW-620 colon | T-47D breast | TK-10 renal | U251 CNS | UACC-257 melanoma | UACC-62 melanoma | UO-31 renal
